# Experimental data taken from ChEMBL document CHEMBL1155237, “Selective inhibitors of the mutant B-Raf pathway: discovery of a potent and orally bioavailable aminoisoquinoline” (J Med Chem, 2009).
# Experiments:
# [1] = molecular target: Serine/threonine-protein kinase PLK4 (Homo sapiens) (UniProt O00444); test: Inhibition of PLK4 assessed as enzyme activity at 1 uM relative to untreated control; set-up: scale not given: the % may be the effect or the level left
# [2] = molecular target: Calcium/calmodulin-dependent protein kinase kinase 1 (Homo sapiens) (UniProt Q8N5S9); test: Inhibition of CAMKK1 assessed as enzyme activity at 1 uM relative to untreated control; set-up: scale not given: the % may be the effect or the level left
# [3] = molecular target: Mitogen-activated protein kinase 11 (Homo sapiens) (UniProt Q15759); test: Inhibition of p38beta assessed as enzyme activity at 1 uM relative to untreated control; set-up: scale not given: the % may be the effect or the level left
# [4] = molecular target: Serine/threonine-protein kinase tousled-like 2 (Homo sapiens) (UniProt Q86UE8); test: Inhibition of TLK2 assessed as enzyme activity at 1 uM relative to untreated control; set-up: scale not given: the % may be the effect or the level left
# [5] = molecular target: Serine/threonine-protein kinase 3 (Homo sapiens) (UniProt Q13188); test: Inhibition of MST2 assessed as enzyme activity at 1 uM relative to untreated control; set-up: scale not given: the % may be the effect or the level left
# [6] = molecular target: Activin receptor type-2A (Homo sapiens) (UniProt P27037); test: Inhibition of ACVR2A assessed as enzyme activity at 1 uM relative to untreated control; set-up: scale not given: the % may be the effect or the level left
# [7] = molecular target: Receptor-interacting serine/threonine-protein kinase 4 (Homo sapiens) (UniProt P57078); test: Inhibition of RIPK4 assessed as enzyme activity at 1 uM relative to untreated control; set-up: scale not given: the % may be the effect or the level left
# [8] = molecular target: MAP kinase-interacting serine/threonine-protein kinase 2 (Homo sapiens) (UniProt Q9HBH9); test: Inhibition of MKNK2 assessed as enzyme activity at 1 uM relative to untreated control; set-up: scale not given: the % may be the effect or the level left
# [9] = molecular target: SRSF protein kinase 1 (Homo sapiens) (UniProt Q96SB4); test: Inhibition of SRPK1 assessed as enzyme activity at 1 uM relative to untreated control; set-up: scale not given: the % may be the effect or the level left
# [10] = molecular target: Dual specificity tyrosine-phosphorylation-regulated kinase 1B (Homo sapiens) (UniProt Q9Y463); test: Inhibition of DYRK1B assessed as enzyme activity at 1 uM relative to untreated control; set-up: scale not given: the % may be the effect or the level left
# [11] = molecular target: Bone morphogenetic protein receptor type-2 (Homo sapiens) (UniProt Q13873); test: Inhibition of BMPR2 assessed as enzyme activity at 1 uM relative to untreated control; set-up: scale not given: the % may be the effect or the level left
# [12] = molecular target: Mitogen-activated protein kinase 6 (Homo sapiens) (UniProt Q16659); test: Inhibition of ERK3 assessed as enzyme activity at 1 uM relative to untreated control; set-up: scale not given: the % may be the effect or the level left
# [13] = molecular target: Dual specificity mitogen-activated protein kinase kinase 4 (Homo sapiens) (UniProt P45985); test: Inhibition of MEK4 assessed as enzyme activity at 1 uM relative to untreated control; set-up: scale not given: the % may be the effect or the level left
# [14] = molecular target: Cyclin-dependent kinase 8 (Homo sapiens) (UniProt P49336); test: Inhibition of CDK8 assessed as enzyme activity at 1 uM relative to untreated control; set-up: scale not given: the % may be the effect or the level left
# [15] = molecular target: Tyrosine-protein kinase receptor UFO (Homo sapiens) (UniProt P30530); test: Inhibition of AXL assessed as enzyme activity at 1 uM relative to untreated control; set-up: scale not given: the % may be the effect or the level left
# [16] = molecular target: Mitogen-activated protein kinase 14 (Homo sapiens, UniProt Q16539); test: Inhibition of p38alpha
# [17] = molecular target: Ephrin type-A receptor 7 (Homo sapiens) (UniProt Q15375); test: Inhibition of EPHA7 assessed as enzyme activity at 1 uM relative to untreated control; set-up: scale not given: the % may be the effect or the level left
# [18] = molecular target: Interleukin-1 receptor-associated kinase 3 (Homo sapiens) (UniProt Q9Y616); test: Inhibition of IRAK3 assessed as enzyme activity at 1 uM relative to untreated control; set-up: scale not given: the % may be the effect or the level left
# [19] = system: eIF-2-alpha kinase GCN2 (Homo sapiens), Q9P2K8 [S808G]; test: Inhibition of GCN2 kinase domain-2 S808G mutant assessed as enzyme activity at 1 uM relative to untreated control; set-up: scale not given: the % may be the effect or the level left
# [20] = molecular target: Serine/threonine-protein kinase LATS2 (Homo sapiens) (UniProt Q9NRM7); test: Inhibition of LATS2 assessed as enzyme activity at 1 uM relative to untreated control; set-up: scale not given: the % may be the effect or the level left
# [21] = molecular target: Phosphatidylinositol 4-phosphate 5-kinase type-1 alpha (Homo sapiens) (UniProt Q99755); test: Inhibition of PIP5K1A assessed as enzyme activity at 1 uM relative to untreated control; set-up: scale not given: the % may be the effect or the level left
# [22] = molecular target: Tyrosine-protein kinase ABL2 (Homo sapiens) (UniProt P42684); test: Inhibition of ABL2 assessed as enzyme activity at 1 uM relative to untreated control; set-up: scale not given: the % may be the effect or the level left
# [23] = molecular target: Proto-oncogene tyrosine-protein kinase Src (Homo sapiens) (UniProt P12931); test: Inhibition of SRC assessed as enzyme activity at 1 uM relative to untreated control; set-up: scale not given: the % may be the effect or the level left
# [24] = molecular target: Serine/threonine-protein kinase DCLK2 (Homo sapiens) (UniProt Q8N568); test: Inhibition of DCAMKL2 assessed as enzyme activity at 1 uM relative to untreated control; set-up: scale not given: the % may be the effect or the level left
# [25] = molecular target: Mitogen-activated protein kinase 7 (Homo sapiens) (UniProt Q13164); test: Inhibition of ERK5 assessed as enzyme activity at 1 uM relative to untreated control; set-up: scale not given: the % may be the effect or the level left
# [26] = molecular target: Mitogen-activated protein kinase kinase kinase 9 (Homo sapiens) (UniProt P80192); test: Inhibition of MLK1 assessed as enzyme activity at 1 uM relative to untreated control; set-up: scale not given: the % may be the effect or the level left
# [27] = Elimination half life in Sprague-Dawley rat at 2 mg/kg, iv and 5 mg/kg, po; type: ADME, organism-based; conditions: in vivo, read-out: beta t1/2 (converted)
# [28] = molecular target: Serine/threonine-protein kinase 36 (Homo sapiens) (UniProt Q9NRP7); test: Inhibition of STK36 assessed as enzyme activity at 1 uM relative to untreated control; set-up: scale not given: the % may be the effect or the level left
# [29] = molecular target: Tyrosine-protein kinase CSK (Homo sapiens) (UniProt P41240); test: Inhibition of CSK assessed as enzyme activity at 1 uM relative to untreated control; set-up: scale not given: the % may be the effect or the level left
# [30] = molecular target: Ribosomal protein S6 kinase alpha-4 (Homo sapiens) (UniProt O75676); test: Inhibition of RPS6KA4 kinase domain 2 assessed as enzyme activity at 1 uM relative to untreated control; set-up: scale not given: the % may be the effect or the level left
# [31] = molecular target: Receptor-type tyrosine-protein kinase FLT3 (Homo sapiens) (UniProt P36888); test: Inhibition of FLT3 assessed as enzyme activity at 1 uM relative to untreated control; set-up: scale not given: the % may be the effect or the level left
# [32] = molecular target: Serine/threonine-protein kinase 26 (Homo sapiens) (UniProt Q9P289); test: Inhibition of MST4 assessed as enzyme activity at 1 uM relative to untreated control; set-up: scale not given: the % may be the effect or the level left
# [33] = molecular target: Serine/threonine-protein kinase TAO1 (Homo sapiens) (UniProt Q7L7X3); test: Inhibition of TAOK1 assessed as enzyme activity at 1 uM relative to untreated control; set-up: scale not given: the % may be the effect or the level left
# [34] = molecular target: Bone morphogenetic protein receptor type-1B (Homo sapiens) (UniProt O00238); test: Inhibition of BMPR1B assessed as enzyme activity at 1 uM relative to untreated control; set-up: scale not given: the % may be the effect or the level left
# [35] = molecular target: Cyclin-dependent kinase 7 (Homo sapiens) (UniProt P50613); test: Inhibition of CDK7 assessed as enzyme activity at 1 uM relative to untreated control; set-up: scale not given: the % may be the effect or the level left
# [36] = molecular target: Serine/threonine-protein kinase 17B (Homo sapiens) (UniProt O94768); test: Inhibition of DRAK2 assessed as enzyme activity at 1 uM relative to untreated control; set-up: scale not given: the % may be the effect or the level left
# [37] = system: Tyrosine-protein kinase ABL1 (Homo sapiens), P00519 [F317L]; test: Inhibition of ABL1 F317L mutant assessed as enzyme activity at 1 uM relative to untreated control; set-up: scale not given: the % may be the effect or the level left
# Mitogen-activated protein kinase kinase kinase 9 (Homo sapiens), sequence (P80192 whole entry, looked up): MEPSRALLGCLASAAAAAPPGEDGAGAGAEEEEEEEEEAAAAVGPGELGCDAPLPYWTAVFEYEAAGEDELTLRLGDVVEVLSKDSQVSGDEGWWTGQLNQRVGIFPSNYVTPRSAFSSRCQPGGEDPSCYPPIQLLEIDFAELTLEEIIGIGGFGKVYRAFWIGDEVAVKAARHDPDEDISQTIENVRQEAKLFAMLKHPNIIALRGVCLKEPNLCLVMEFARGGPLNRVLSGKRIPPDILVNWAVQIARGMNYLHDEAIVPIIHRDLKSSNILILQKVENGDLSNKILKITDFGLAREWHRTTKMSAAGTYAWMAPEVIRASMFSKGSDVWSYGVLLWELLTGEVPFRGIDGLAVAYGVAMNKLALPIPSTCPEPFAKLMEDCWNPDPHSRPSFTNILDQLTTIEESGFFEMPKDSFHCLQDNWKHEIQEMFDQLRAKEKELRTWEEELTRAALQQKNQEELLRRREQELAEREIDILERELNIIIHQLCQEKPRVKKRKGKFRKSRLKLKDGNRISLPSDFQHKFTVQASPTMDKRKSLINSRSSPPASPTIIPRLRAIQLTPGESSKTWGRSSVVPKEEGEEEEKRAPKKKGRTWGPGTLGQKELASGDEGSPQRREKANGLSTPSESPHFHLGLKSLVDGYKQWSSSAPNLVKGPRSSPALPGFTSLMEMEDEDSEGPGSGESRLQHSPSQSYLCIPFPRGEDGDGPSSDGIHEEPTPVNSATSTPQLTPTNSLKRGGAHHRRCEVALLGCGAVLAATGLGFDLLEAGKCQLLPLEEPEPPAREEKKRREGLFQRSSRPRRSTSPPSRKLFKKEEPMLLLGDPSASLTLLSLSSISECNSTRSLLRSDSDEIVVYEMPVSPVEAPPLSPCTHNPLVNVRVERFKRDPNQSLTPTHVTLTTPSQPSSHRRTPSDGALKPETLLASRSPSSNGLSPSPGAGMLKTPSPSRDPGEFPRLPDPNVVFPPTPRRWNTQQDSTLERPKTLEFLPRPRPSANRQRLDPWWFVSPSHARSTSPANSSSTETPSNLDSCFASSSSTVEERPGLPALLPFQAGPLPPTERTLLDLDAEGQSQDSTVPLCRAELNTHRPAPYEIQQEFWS
# Serine/threonine-protein kinase tousled-like 2 (Homo sapiens), sequence (Q86UE8 whole entry, looked up): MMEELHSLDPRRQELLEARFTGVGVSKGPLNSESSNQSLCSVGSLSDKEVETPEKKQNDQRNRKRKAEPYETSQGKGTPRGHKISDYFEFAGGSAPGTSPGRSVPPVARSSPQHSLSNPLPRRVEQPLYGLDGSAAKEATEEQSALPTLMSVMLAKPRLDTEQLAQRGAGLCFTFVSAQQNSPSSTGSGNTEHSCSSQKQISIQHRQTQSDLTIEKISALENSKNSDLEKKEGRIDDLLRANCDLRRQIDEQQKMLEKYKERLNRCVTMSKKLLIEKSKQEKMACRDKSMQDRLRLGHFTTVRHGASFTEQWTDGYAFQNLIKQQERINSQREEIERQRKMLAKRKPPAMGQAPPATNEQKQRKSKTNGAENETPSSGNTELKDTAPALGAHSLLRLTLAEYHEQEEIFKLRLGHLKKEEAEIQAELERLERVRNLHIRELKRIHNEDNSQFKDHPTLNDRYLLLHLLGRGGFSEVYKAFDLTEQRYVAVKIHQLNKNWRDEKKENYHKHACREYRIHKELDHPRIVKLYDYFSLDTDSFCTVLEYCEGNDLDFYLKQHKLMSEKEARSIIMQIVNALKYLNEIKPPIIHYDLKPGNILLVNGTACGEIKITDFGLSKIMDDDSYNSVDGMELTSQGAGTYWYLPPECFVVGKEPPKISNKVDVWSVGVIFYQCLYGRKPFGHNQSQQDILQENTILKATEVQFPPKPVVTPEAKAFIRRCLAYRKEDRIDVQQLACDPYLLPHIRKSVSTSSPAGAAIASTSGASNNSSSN
# Receptor-interacting serine/threonine-protein kinase 4 (Homo sapiens), sequence (P57078 whole entry): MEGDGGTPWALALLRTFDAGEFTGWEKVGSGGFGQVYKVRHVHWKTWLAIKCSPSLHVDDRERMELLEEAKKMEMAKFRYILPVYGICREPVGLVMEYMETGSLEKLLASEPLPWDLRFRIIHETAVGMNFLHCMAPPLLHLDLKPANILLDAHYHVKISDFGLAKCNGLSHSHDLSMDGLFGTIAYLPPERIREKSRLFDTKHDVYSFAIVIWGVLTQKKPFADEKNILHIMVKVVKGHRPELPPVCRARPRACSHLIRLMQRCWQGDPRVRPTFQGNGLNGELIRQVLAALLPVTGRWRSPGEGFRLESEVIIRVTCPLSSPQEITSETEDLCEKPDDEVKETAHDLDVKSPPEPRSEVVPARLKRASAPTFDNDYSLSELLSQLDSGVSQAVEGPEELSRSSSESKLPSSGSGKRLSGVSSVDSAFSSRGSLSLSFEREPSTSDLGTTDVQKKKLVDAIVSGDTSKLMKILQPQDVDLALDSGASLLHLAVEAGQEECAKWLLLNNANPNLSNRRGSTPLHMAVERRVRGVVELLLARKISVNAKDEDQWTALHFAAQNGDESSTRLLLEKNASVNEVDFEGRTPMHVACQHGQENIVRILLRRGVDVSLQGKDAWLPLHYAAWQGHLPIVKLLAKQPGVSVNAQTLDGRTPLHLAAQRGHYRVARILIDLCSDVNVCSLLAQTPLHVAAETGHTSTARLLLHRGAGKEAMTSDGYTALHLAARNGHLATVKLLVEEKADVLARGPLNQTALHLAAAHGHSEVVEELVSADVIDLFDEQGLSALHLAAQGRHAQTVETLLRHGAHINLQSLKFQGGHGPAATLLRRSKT
# Mitogen-activated protein kinase 14, sequence (Q16539 whole entry): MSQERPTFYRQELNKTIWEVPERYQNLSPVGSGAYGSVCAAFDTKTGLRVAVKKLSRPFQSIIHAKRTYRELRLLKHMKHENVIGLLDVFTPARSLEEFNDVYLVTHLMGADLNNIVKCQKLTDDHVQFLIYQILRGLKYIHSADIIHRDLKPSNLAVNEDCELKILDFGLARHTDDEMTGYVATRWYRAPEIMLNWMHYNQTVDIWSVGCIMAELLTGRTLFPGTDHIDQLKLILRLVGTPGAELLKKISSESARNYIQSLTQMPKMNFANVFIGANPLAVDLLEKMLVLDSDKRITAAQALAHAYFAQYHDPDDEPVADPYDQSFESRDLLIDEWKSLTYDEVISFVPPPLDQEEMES
# Cyclin-dependent kinase 7 (Homo sapiens), sequence (P50613 whole entry): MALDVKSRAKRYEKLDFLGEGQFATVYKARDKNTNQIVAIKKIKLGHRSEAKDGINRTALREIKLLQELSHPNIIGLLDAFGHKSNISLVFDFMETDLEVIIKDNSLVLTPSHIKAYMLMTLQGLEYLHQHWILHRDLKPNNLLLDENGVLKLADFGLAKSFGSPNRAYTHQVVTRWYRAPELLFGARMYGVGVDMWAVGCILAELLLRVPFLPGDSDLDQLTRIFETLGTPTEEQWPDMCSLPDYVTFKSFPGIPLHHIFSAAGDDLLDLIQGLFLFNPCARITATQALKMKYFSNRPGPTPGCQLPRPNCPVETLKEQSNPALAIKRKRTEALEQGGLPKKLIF
# Dual specificity mitogen-activated protein kinase kinase 4 (Homo sapiens), sequence (P45985 whole entry): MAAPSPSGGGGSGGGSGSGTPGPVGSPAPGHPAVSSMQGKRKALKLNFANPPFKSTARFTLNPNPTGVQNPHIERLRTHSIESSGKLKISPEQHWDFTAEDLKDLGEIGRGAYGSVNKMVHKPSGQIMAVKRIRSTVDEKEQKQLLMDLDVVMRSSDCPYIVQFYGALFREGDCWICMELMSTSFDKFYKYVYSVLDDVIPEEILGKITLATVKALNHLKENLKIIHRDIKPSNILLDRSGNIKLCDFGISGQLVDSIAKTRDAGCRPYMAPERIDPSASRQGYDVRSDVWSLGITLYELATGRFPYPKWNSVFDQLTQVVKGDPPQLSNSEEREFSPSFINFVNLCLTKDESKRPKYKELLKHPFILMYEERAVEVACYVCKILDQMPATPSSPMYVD
# Activin receptor type-2A (Homo sapiens), sequence (P27037 whole entry): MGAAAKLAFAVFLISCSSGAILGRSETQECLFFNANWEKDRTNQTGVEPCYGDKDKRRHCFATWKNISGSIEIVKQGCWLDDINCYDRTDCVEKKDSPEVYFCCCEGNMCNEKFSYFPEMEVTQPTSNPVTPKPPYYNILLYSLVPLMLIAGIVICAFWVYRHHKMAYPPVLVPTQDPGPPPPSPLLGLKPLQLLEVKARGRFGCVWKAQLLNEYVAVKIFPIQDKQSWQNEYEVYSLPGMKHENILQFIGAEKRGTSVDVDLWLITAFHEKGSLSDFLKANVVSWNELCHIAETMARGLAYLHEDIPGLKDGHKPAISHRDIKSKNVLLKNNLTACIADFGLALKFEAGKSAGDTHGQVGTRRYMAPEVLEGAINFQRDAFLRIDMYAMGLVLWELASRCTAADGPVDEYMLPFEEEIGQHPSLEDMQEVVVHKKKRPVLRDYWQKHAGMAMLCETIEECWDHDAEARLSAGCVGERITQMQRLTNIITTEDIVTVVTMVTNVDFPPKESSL
# Mitogen-activated protein kinase 6 (Homo sapiens), sequence (Q16659 whole entry): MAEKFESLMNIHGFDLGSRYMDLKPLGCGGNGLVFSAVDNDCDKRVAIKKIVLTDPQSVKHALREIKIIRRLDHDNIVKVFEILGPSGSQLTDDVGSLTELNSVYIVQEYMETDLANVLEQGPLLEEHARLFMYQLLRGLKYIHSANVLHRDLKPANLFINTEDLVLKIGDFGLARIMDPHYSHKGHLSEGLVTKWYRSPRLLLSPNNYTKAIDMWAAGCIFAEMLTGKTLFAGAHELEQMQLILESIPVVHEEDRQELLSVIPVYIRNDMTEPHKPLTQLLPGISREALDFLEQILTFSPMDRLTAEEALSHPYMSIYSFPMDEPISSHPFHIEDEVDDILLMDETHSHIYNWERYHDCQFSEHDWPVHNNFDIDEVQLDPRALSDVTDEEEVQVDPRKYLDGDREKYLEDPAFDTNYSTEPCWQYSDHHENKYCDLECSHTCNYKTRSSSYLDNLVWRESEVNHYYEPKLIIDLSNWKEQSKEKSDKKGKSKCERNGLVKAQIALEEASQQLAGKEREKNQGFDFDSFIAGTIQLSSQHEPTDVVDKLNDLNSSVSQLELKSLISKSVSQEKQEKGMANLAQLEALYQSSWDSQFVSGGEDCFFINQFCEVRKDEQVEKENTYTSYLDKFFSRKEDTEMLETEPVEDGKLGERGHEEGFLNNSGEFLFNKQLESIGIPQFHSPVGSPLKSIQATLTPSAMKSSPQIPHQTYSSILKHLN
structure (smiles),measurement,setting,value
Cc1ccc2c(Nc3ccc(Cl)cc3)nccc2c1Nc1ncccc1-c1ncnc2[nH]cnc12.Cl.Cl.Cl,Activity,[1],90%
same,Activity,[2],96%
same,Activity,[3],99%
same,Activity,[4],100%
same,Activity,[5],100%
same,Activity,[6],100%
same,Activity,[7],64%
same,Activity,[8],100%
same,Activity,[9],100%
same,Activity,[10],100%
same,Activity,[11],100%
same,Activity,[12],98%
same,Activity,[13],93%
same,Activity,[14],100%
same,Activity,[15],95%
same,IC50,[16],> 1600 nM
same,Activity,[17],4.7%
same,Activity,[18],81%
same,Activity,[19],100%
same,Activity,[20],85%
same,Activity,[21],95%
same,Activity,[22],42%
same,Activity,[23],73%
same,Activity,[24],100%
same,Activity,[25],95%
same,Activity,[26],100%
same,half-life,[27],3.5 h
same,Activity,[28],92%
same,Activity,[29],100%
same,Activity,[30],89%
same,Activity,[31],62%
same,Activity,[32],100%
same,Activity,[33],88%
same,Activity,[34],96%
same,Activity,[35],100%
same,Activity,[36],96%
same,Activity,[37],79%
